The source of these data is patent US9493411B2 (AbbVie Inc., priority 2013, dated 2016).

One test concerns the target T1, BRD4 (BDI_K57-E168) (Homo sapiens, UniProt O60885).
T1 construct: BD1: amino acids K57-E168; made in house
Briefly: TR-FRET bromodomain binding assay, BRD4 first bromodomain. The following applies: His-tagged BD1, Alexa647-labeled probe 100 nM; Ki calculated from IC50. The procedure: (§1) A time-resolved fluorescence resonance energy transfer (TR-FRET) assay was used to determine the affinities of compounds of the Examples listed in Table 1 for each bromodomain of BRD4. His-tagged first (BD1: amino acids K57-E168) and second (BD2: amino acids E352-E168) bromodomains of BRD4 were expressed and purified. An Alexa647-labeled BET-inhibitor was used as the fluorescent probe in the assay.
(§2) Compound dilution series were prepared in DMSO via a 3-fold serial dilution from 2.5 mM to 42 nM. Compounds were then diluted 6:100 in assay buffer (20 mM Sodium Phosphate, pH 6.0, 50 mM NaCl, 1 mM Ethylenediaminetetraacetic acid disodium salt dihydrate, 0.01% Triton X-100, 1 mM DL-Dithiothreitol) to yield 3× working solutions. Six microliters (μL) of the working solution was then transferred to white, low-volume assay plates (Costar #3673). A 1.5× assay mixture containing His-tagged bromodomain, Europium-conjugated anti-His antibody (Invitrogen PV5596) and the Alexa-647-conjugated probe molecule was also prepared. Twelve μL of this solution were added to the assay plate to reach a final volume of 18 μL. The final concentration of 1× assay buffer contains 2% DMSO, 50 μM-0.85 nM compound, 8 nM His-tagged bromodomain, 1 nM Europium-conjugated anti-His-tag antibody and 100 nM or 30 nM probe (for BDI or BDII, respectively). After a one-hour incubation at room temperature, TR-FRET ratios were determined using an Envision multilabel plate reader (Ex 340, Em […]).
(§3) TR-FRET data were normalized to the means of 24 no-compound controls (“high”) and 8 controls containing 1 μM un-labeled probe (“low”). Percent inhibition was plotted as a function of compound concentration and the data were fit with the 4 parameter logistic equation to obtain IC50s. Inhibition constants (Ki) were calculated from the IC50s, probe Kd and probe concentration. Typical Z′ values were between 0.65 and 0.75. The minimum significant ratio was determined to evaluate assay reproducibility (Eastwood et al., (2006) J Biomol Screen, 11: 253-261). The MSR was determined to be 2.03 for BDI and 1.93 for BDII, and a moving MSR (last six run MSR overtime) for both BDI and BDII was typically <3.

The target in a further test is T2, BRD4 (BDII_E352-M457) (Homo sapiens, UniProt O60885).
T2 construct: made in house
Briefly: TR-FRET bromodomain binding assay, BRD4 second bromodomain. The following applies: His-tagged BD2, Alexa647-labeled probe 30 nM; Ki calculated from IC50. The procedure: as §1, §2, §3

A word on the Ki: it is a dissociation constant, usually derived from enzyme kinetics or from competition with a known ligand. For `Cc1[nH]c(-c2ccccc2NCC2CCN(C(=O)OC(C)(C)C)CC2)cc1C(N)=O` [Example 41, tert-butyl 4-({[2-(4-carbamoyl-5-methyl-1H-pyrrol-2-yl)phenyl]amino}methyl)piperidine-1-carboxylate], the figures for the Ki on BRD4 (BDI_K57-E168) and at BRD4 (BDII_E352-M457) were 0.48 µM and 16.5 µM, respectively.
For the compound `Cc1[nH]c(-c2ccc(-c3cccc(C(=O)N(C)C)c3)cc2)cc1C(N)=O` [Example 104, 5-[3′-(dimethylcarbamoyl)biphenyl-4-yl]-2-methyl-1H-pyrrole-3-carboxamide], the Ki at BRD4 (BDI_K57-E168) is 2.38 µM; on BRD4 (BDII_E352-M457) it was 2.34 µM.
The matching figures for `Cc1[nH]c(-c2ccccc2NS(=O)(=O)c2cccnc2)cc1C(N)=O` [Example 80, 2-methyl-5-{2-[(pyridin-3-ylsulfonyl)amino]phenyl}-1H-pyrrole-3-carboxamide]: 9.39 µM and 13.4 µM.
The corresponding values for `Cc1[nH]c(-c2ccccc2NCC2CC2)cc1C(N)=O` [Example 26, 5-{2-[(cyclopropylmethyl)amino]phenyl}-2-methyl-1H-pyrrole-3-carboxamide] are 0.86 µM and 7.53 µM.
The corresponding values for “2-methyl-5-[2-(pyridin-2-yloxy)phenyl]-1H-pyrrole-3-carboxamide [Example 131]” are 9.4 µM and 22.2 µM.
`Cc1[nH]c(-c2ccccc2NC2CCC2)cc1C(N)=O` [Example 66, 5-[2-(cyclobutylamino)phenyl]-2-methyl-1H-pyrrole-3-carboxamide]: the Ki at BRD4 (BDI_K57-E168) was 1.76 µM; at BRD4 (BDII_E352-M457) it was 6.15 µM.
The matching figures for `Cc1[nH]c(-c2c(N)cccc2Oc2ccccc2)cc1C(N)=O` [Example 91, 5-(2-amino-6-phenoxyphenyl)-2-methyl-1H-pyrrole-3-carboxamide]: 0.331 µM and 3.35 µM.
Take `Cc1[nH]c(-c2ccccc2NCc2ccc(N(C)C)cc2)cc1C(N)=O` [Example 37, 5-(2-{[4-(dimethylamino)benzyl]amino}phenyl)-2-methyl-1H-pyrrole-3-carboxamide]: the Ki on BRD4 (BDI_K57-E168) is 4.68 µM; on BRD4 (BDII_E352-M457), 3.58 µM.
The corresponding values for `Cc1[nH]c(-c2ccccc2NCc2ccccc2Cl)cc1C(N)=O` [Example 34, 5-{2-[(2-chlorobenzyl)amino]phenyl}-2-methyl-1H-pyrrole-3-carboxamide] are 1.4 µM and 3.45 µM.
The corresponding values for `Cc1[nH]c(-c2cc(CC(=O)O)ccc2OCc2ccccc2)cc1C(N)=O` [Example 166, [4-(benzyloxy)-3-(4-carbamoyl-5-methyl-1H-pyrrol-2-yl)phenyl]acetic acid] are 0.63 µM and 10.5 µM.
Regarding `Cc1[nH]c(-c2ccccc2NCc2cc(C(F)(F)F)cc(C(F)(F)F)c2)cc1C(N)=O` [Example 21, 5-(2-{[3,5-bis(trifluoromethyl)benzyl]amino}phenyl)-2-methyl-1H-pyrrole-3-carboxamide], the values for the Ki at BRD4 (BDI_K57-E168) and on BRD4 (BDII_E352-M457) were 9.69 µM and 21.5 µM, respectively.
The matching figures for `Cc1[nH]c(-c2ccc(-c3cccc(O)c3)cc2)cc1C(N)=O` [Example 98, 5-(3′-hydroxybiphenyl-4-yl)-2-methyl-1H-pyrrole-3-carboxamide]: 11.3 µM and 7.01 µM.
The corresponding values for `Cc1[nH]c(-c2ccc(-c3ccncc3)cc2)cc1C(N)=O` [Example 102, 2-methyl-5-[4-(pyridin-4-yl)phenyl]-1H-pyrrole-3-carboxamide] are 5.68 µM and 4.37 µM.
The matching figures for `Cc1[nH]c(-c2ccccc2NS(=O)(=O)CC(F)(F)F)cc1C(N)=O` [Example 86, 2-methyl-5-(2-{[(2,2,2-trifluoroethyl)sulfonyl]amino}phenyl)-1H-pyrrole-3-carboxamide]: 3.03 µM and 2.6 µM.
In the case of `Cc1noc(C)c1-c1ccc(-c2cc(C(=O)NO)c(C)[nH]2)cc1` [Example 95, 5-[4-(3,5-dimethyl-1,2-oxazol-4-yl)phenyl]-N-hydroxy-2-methyl-1H-pyrrole-3-carboxamide], the values for the inhibition constant Ki at BRD4 (BDI_K57-E168) and at BRD4 (BDII_E352-M457) were 5.07 µM and 5.62 µM, respectively.
The corresponding values for `Cc1[nH]c(-c2ccccc2NCc2ccc(C(F)(F)F)cc2)cc1C(N)=O` [Example 28, 2-methyl-5-(2-{[4-(trifluoromethyl)benzyl]amino}phenyl)-1H-pyrrole-3-carboxamide] are 9.45 µM and 13.6 µM.
The matching figures for `Cc1[nH]c(-c2cc(N)ccc2Oc2ccccc2)cc1C(N)=O` [Example 161, 5-(5-amino-2-phenoxyphenyl)-2-methyl-1H-pyrrole-3-carboxamide]: 0.109 µM and 0.658 µM.
Regarding `Cc1[nH]c(-c2ccccc2NC2CCNCC2)cc1C(N)=O` [Example 65, 2-methyl-5-[2-(piperidin-4-ylamino)phenyl]-1H-pyrrole-3-carboxamide], the values for the Ki on BRD4 (BDI_K57-E168) and on BRD4 (BDII_E352-M457) were 0.634 µM and 12.2 µM, respectively.
The corresponding values for `Cc1[nH]c(-c2ccccc2NS(=O)(=O)CCC(F)(F)F)cc1C(N)=O` [Example 82, 2-methyl-5-(2-{[(3,3,3-trifluoropropyl)sulfonyl]amino}phenyl)-1H-pyrrole-3-carboxamide] are 2.96 µM and 8.72 µM.
The matching figures for `Cc1[nH]c(-c2ccccc2NCc2ccc(F)cc2)cc1C(N)=O` [Example 23, 5-{2-[(4-fluorobenzyl)amino]phenyl}-2-methyl-1H-pyrrole-3-carboxamide]: 3.52 µM and 3.53 µM.
As to `Cc1[nH]c(-c2ccc([N+](=O)[O-])cc2)cc1C(N)=O` [Example 7, 2-methyl-5-(4-nitrophenyl)-1H-pyrrole-3-carboxamide], the inhibition constant (Ki) at BRD4 (BDI_K57-E168) was 1.63 µM; at BRD4 (BDII_E352-M457), 6.89 µM.
Take `CC(=O)c1ccccc1-c1cccc(-c2cc(C(N)=O)c(C)[nH]2)c1` [Example 153, 5-(2′-acetylbiphenyl-3-yl)-2-methyl-1H-pyrrole-3-carboxamide]: the Ki was 2.22 µM on BRD4 (BDI_K57-E168) and 7.32 µM at BRD4 (BDII_E352-M457).
The corresponding values for `Cc1[nH]c(-c2c(F)cccc2F)cc1C(N)=O` [Example 147, 5-(2,6-difluorophenyl)-2-methyl-1H-pyrrole-3-carboxamide] are 11.9 µM and 12.2 µM.
The corresponding values for `Cc1[nH]c(-c2ccccc2NC2CCc3ccccc3C2)cc1C(N)=O` (stereo not drawn) [Example 74, 2-methyl-5-[2-(1,2,3,4-tetrahydronaphthalen-2-ylamino)phenyl]-1H-pyrrole-3-carboxamide] are 0.526 µM and 1.65 µM.
The matching figures for `Cc1[nH]c(-c2ccc(-c3ccc(NS(C)(=O)=O)cc3)cc2)cc1C(N)=O` [Example 110, 2-methyl-5-{4′-[(methylsulfonyl)amino]biphenyl-4-yl}-1H-pyrrole-3-carboxamide]: 4.03 µM and 5.9 µM.
On to `Cc1cc(CNc2ccccc2-c2cc(C(N)=O)c(C)[nH]2)oc1C` [Example 20, 5-(2-{[(4,5-dimethylfuran-2-yl)methyl]amino}phenyl)-2-methyl-1H-pyrrole-3-carboxamide], for which the figures for the inhibitory constant (Ki) at BRD4 (BDI_K57-E168) and at BRD4 (BDII_E352-M457) were 1.19 µM and 3.29 µM, respectively.
Regarding `Cc1[nH]c(-c2ccccc2NCc2ccc(CO)o2)cc1C(N)=O` [Example 55, 5-[2-({[5-(hydroxymethyl)furan-2-yl]methyl}amino)phenyl]-2-methyl-1H-pyrrole-3-carboxamide], the Ki on BRD4 (BDI_K57-E168) was 0.722 µM; at BRD4 (BDII_E352-M457), 4.94 µM.
